The source of these data is patent US8188101B2 (AstraZeneca AB, priority 2008, dated 2012).

The test system of this assay is Aβ42 release. Description: Aβ release in cells stably expressing APPswe, Meso Scale Discovery electrochemiluminescence assay. The conditions noted are these: Homo sapiens, SH-SY5Y, HEK or SH-SY5Y cells stably expressing APPswe, 4-6 hours incubation with test compound. Format: cell-based, Human. The method in brief:
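HEK or SH-SY5Y cells stably expressing APPswe, plated 15-24 h, then exposed to compound (diluted ×200 into fresh medium) for 4-6 h at 37 °C. Secreted Aβ42 in medium quantified by Meso Scale Discovery electrochemiluminescence with specific antibodies; cytotoxicity checked by cellular ATP content.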
In the case of `CCN(CC1CCCO1)c1nc(Nc2ccc(-c3cnco3)cc2)nc2c1CN(C)CC2` (stereo not drawn) [Example 82, N4-Ethyl-6-methyl-N2-(4-(oxazol-5-yl)phenyl)-N4-((tetrahydrofuran-2-yl)methyl)-5,6,7,8-tetrahydropyrido[4,3-d]pyrimidine-2,4-diamine], the IC50 was 316 nM.

Take `CN1CCc2nc(Nc3ccc(-c4cnco4)cc3)nc(NC[C@@H]3CCCO3)c2C1` [Example 83, (S)-6-Methyl-N2-(4-(oxazol-5-yl)phenyl)-N4-((tetrahydrofuran-2-yl)methyl)-5,6,7,8-tetrahydropyrido[4,3-d]pyrimidine-2,4-diamine]: the IC50 was 158 nM.

Turning to `CN1CCc2nc(Nc3ccc(-c4cnco4)cc3)nc(NC[C@H]3CCCO3)c2C1` [Example 84, (R)-6-Methyl-N2-(4-(oxazol-5-yl)phenyl)-N4-((tetrahydrofuran-2-yl)methyl)-5,6,7,8-tetrahydropyrido[4,3-d]pyrimidine-2,4-diamine], the IC50 is 158 nM.

In the case of `CN1CCc2nc(Nc3ccc(-c4cnco4)cc3)nc(NCC3CCOCC3)c2C1` [Example 85, 6-Methyl-N2-(4-(oxazol-5-yl)phenyl)-N4-((tetrahydro-2H-pyran-4-yl)methyl)-5,6,7,8-tetrahydropyrido[4,3-d]pyrimidine-2,4-diamine], the 50% inhibitory concentration (IC50) was 251 nM.

As for `OCCN1CCc2nc(Nc3ccc(-c4cnco4)cc3)nc(NCC3CCOCC3)c2C1` [Example 86, 2-(2-(4-(Oxazol-5-yl)phenylamino)-4-((tetrahydro-2H-pyran-4-yl)methylamino)-7,8-dihydropyrido[4,3-d]pyrimidin-6(5H)-yl)ethanol], the IC50 is 501 nM.

On to `Cc1cc(C(C)c2ccccc2)nc(Nc2ccc(-n3ccnc3C)cc2)n1` (stereo not drawn) [Example 87, 4-Methyl-N-(4-(2-methyl-1H-imidazol-1-yl)phenyl)-6-(1-phenylethyl)pyrimidin-2-amine], for which the IC50 was 316 nM.

Turning to `CC(=O)N1CCc2nc(Nc3ccc(-c4cnco4)cc3)nc(N(C)C3CCCCC3)c2C1` [Example 88, 1-(4-(Cyclohexyl(methyl)amino)-2-(4-(oxazol-5-yl)phenylamino)-7,8-dihydropyrido[4,3-d]pyrimidin-6(5H)-yl)ethanone], the IC50 is 398 nM.

As to `CC(=O)N1CCc2nc(Nc3ccc(-c4cnco4)cc3)nc(N(C)c3ccc(F)cc3)c2C1` [Example 89, 1-(4-((4-Fluorophenyl)(methyl)amino)-2-(4-(oxazol-5-yl)phenylamino)-7,8-dihydropyrido[4,3-d]pyrimidin-6(5H)-yl)ethanone], the IC50 is 631 nM.

As to `CC(=O)N1CCc2nc(Nc3ccc(-c4cnco4)cc3)nc(N3CCc4ccccc43)c2C1` [Example 90, 1-(4-(Indolin-1-yl)-2-(4-(oxazol-5-yl)phenylamino)-7,8-dihydropyrido[4,3-d]pyrimidin-6(5H)-yl)ethanone], the IC50 is 631 nM.

`CC(=O)N1CCc2nc(Nc3ccc(-c4cnco4)cc3)nc(N(C)Cc3ccccc3CO)c2C1` [Example 91, 1-(4-((2-(Hydroxymethyl)benzyl)(methyl)amino)-2-(4-(oxazol-5-yl)phenylamino)-7,8-dihydropyrido[4,3-d]pyrimidin-6(5H)-yl)ethanone]: the IC50 is 2510 nM.

`CC(=O)N1CCc2nc(Nc3ccc(-c4cnco4)cc3)nc(N(C)Cc3ccccn3)c2C1` [Example 92, 1-(4-(Methyl(pyridin-2-ylmethyl)amino)-2-(4-(oxazol-5-yl)phenylamino)-7,8-dihydropyrido[4,3-d]pyrimidin-6(5H)-yl)ethanone]: the IC50 is 5010 nM.

With `CC(=O)N1CCc2nc(Nc3ccc(-c4cnco4)cc3)nc(N3CCCC(CO)C3)c2C1` (stereo not drawn) [Example 93, 1-(4-(3-(Hydroxymethyl)piperidin-1-yl)-2-(4-(oxazol-5-yl)phenylamino)-7,8-dihydropyrido[4,3-d]pyrimidin-6(5H)-yl)ethanone], the IC50 was 6310 nM.

`CC(=O)N1CCc2nc(Nc3ccc(-c4cnco4)cc3)nc(N3CCCCC3CO)c2C1` (stereo not drawn) [Example 94, 1-(4-(2-(Hydroxymethyl)piperidin-1-yl)-2-(4-(oxazol-5-yl)phenylamino)-7,8-dihydropyrido[4,3-d]pyrimidin-6(5H)-yl)ethanone]: the IC50 was 5010 nM.

As to `COc1cccc(Cc2nc(Nc3ccc(-n4cnc(C)c4)c(OC)c3)nc3c2CN(C)CC3)c1` [Example 95, N-(3-Methoxy-4-(4-methyl-1H-imidazol-1-yl)phenyl)-4-(3-methoxybenzyl)-6-methyl-5,6,7,8-tetrahydropyrido[4,3-d]pyrimidin-2-amine], the IC50 was 39.8 nM.

`COc1cccc(Cc2nc(Nc3ccc(-n4cnc(C)c4)c(OC)c3)nc3c2CN(C(C)=O)CC3)c1` [Example 96, 1-(2-(3-Methoxy-4-(4-methyl-1H-imidazol-1-yl)phenylamino)-4-(3-methoxybenzyl)-7,8-dihydropyrido[4,3-d]pyrimidin-6(5H)-yl)ethanone]: the IC50 was 63.1 nM.

Regarding `COc1cccc(Cc2nc(Nc3ccc(-n4ccnc4C)cc3)nc3c2CN(C(C)=O)CC3)c1` [Example 97, 1-(4-(3-Methoxybenzyl)-2-(4-(2-methyl-1H-imidazol-1-yl)phenylamino)-7,8-dihydropyrido[4,3-d]pyrimidin-6(5H)-yl)ethanone], the IC50 is 631 nM.

As for `CC(=O)N1CCc2nc(Nc3ccc(-n4ccnc4C)cc3)nc(Cc3ccccc3F)c2C1` [Example 98, 1-(4-(2-Fluorobenzyl)-2-(4-(2-methyl-1H-imidazol-1-yl)phenylamino)-7,8-dihydropyrido[4,3-d]pyrimidin-6(5H)-yl)ethanone], the IC50 was 794 nM.

Turning to `Cc1nccn1-c1ccc(Nc2nc3c(c(Cc4ccc(F)cc4)n2)CC(C(F)(F)F)CC3)cc1` (stereo not drawn) [Example 99, 4-(4-Fluorobenzyl)-N-(4-(2-methyl-1H-imidazol-1-yl)phenyl)-6-(trifluoromethyl)-5,6,7,8-tetrahydroquinazolin-2-amine], the concentration for half-maximal inhibition (IC50) is 316 nM.

Take `COc1cccc(Cc2nc(Nc3ccc(-n4cnc(C)c4)c(OC)c3)nc3c2COCC3)c1` [Example 100, N-(3-Methoxy-4-(4-methyl-1H-imidazol-1-yl)phenyl)-4-(3-methoxybenzyl)-7,8-dihydro-5H-pyrano[4,3-d]pyrimidin-2-amine]: the IC50 is 100 nM.

In the case of `COc1cc(Nc2nc3c(c(C(OC)c4ccccc4)n2)COCC3)ccc1-n1cnc(C)c1` (stereo not drawn) [Example 101, 4-(Methoxy(phenyl)methyl)-N-(3-methoxy-4-(4-methyl-1H-imidazol-1-yl)phenyl)-7,8-dihydro-5H-pyrano[4,3-d]pyrimidin-2-amine], the IC50 is 50.1 nM.

Consider `COc1cc(Nc2nc3c(c(CCC4CCCO4)n2)COCC3)ccc1-n1cnc(C)c1` (stereo not drawn) [Example 102, N-(3-Methoxy-4-(4-methyl-1H-imidazol-1-yl)phenyl)-4-(2-(tetrahydrofuran-2-yl)ethyl)-7,8-dihydro-5H-pyrano[4,3-d]pyrimidin-2-amine], for which the IC50 is 126 nM.

`COc1cc(Nc2nc3c(c(C(C)(C)O)n2)COCC3)ccc1-n1cnc(C)c1` [Example 103, 2-(2-(3-Methoxy-4-(4-methyl-1H-imidazol-1-yl)phenylamino)-7,8-dihydro-5H-pyrano[4,3-d]pyrimidin-4-yl)propan-2-ol]: the IC50 is 100 nM.

`COc1cc(Nc2nc3c(c(C(C)n4nc(C)cc4C)n2)COCC3)ccc1-n1cnc(C)c1` (stereo not drawn) [Example 104, 4-(1-(3,5-Dimethyl-1H-pyrazol-1-yl)ethyl)-N-(3-methoxy-4-(4-methyl-1H-imidazol-1-yl)phenyl)-7,8-dihydro-5H-pyrano[4,3-d]pyrimidin-2-amine]: the IC50 was 200 nM.

`COc1cc(Nc2nc3c(c(Cc4ccccc4)n2)CN(CC#N)CC3)ccc1-n1cnc(C)c1` [Example 105, 2-(4-Benzyl-2-(3-methoxy-4-(4-methyl-1H-imidazol-1-yl)phenylamino)-7,8-dihydropyrido[4,3-d]pyrimidin-6(5H)-yl)acetonitrile]: the IC50 is 15.8 nM.

Take `COc1cc(Nc2nc3c(c(Cc4ccccc4)n2)CNCC3)ccc1-n1cnc(C)c1` [Example 106, 4-Benzyl-N-(3-methoxy-4-(4-methyl-1H-imidazol-1-yl)phenyl)-5,6,7,8-tetrahydropyrido[4,3-d]pyrimidin-2-amine]: the IC50 is 63.1 nM.

As to `COc1cc(Nc2nc3c(c(Cc4ccccc4)n2)CN(C(C)=O)CC3)ccc1-n1cnc(C)c1` [Example 107, 1-(4-Benzyl-2-(3-methoxy-4-(4-methyl-1H-imidazol-1-yl)phenylamino)-7,8-dihydropyrido[4,3-d]pyrimidin-6(5H)-yl)ethanone], the IC50 was 25.1 nM.

On to `COc1cc(Nc2nc3c(c(C(C)n4nc(C)cc4C)n2)CN(C(C)=O)CC3)ccc1-n1cnc(C)c1` (stereo not drawn) [Example 108, 1-(4-(1-(3,5-Dimethyl-1H-pyrazol-1-yl)ethyl)-2-(3-methoxy-4-(4-methyl-1H-imidazol-1-yl)phenylamino)-7,8-dihydropyrido[4,3-d]pyrimidin-6(5H)-yl)ethanone], for which the concentration for half-maximal inhibition (IC50) is 501 nM.

Regarding `COc1cc(Nc2nc3c(c(COC4CCCC4)n2)COCC3)ccc1-n1cnc(C)c1` [Example 109, 4-(Cyclopentyloxymethyl)-N-(3-methoxy-4-(4-methyl-1H-imidazol-1-yl)phenyl)-7,8-dihydro-5H-pyrano[4,3-d]pyrimidin-2-amine], the IC50 is 20 nM.

Take `COc1cc(Nc2nc3c(c(CCN4CCCC4=O)n2)COCC3)ccc1-n1cnc(C)c1` [Example 110, 1-(2-(2-(3-Methoxy-4-(4-methyl-1H-imidazol-1-yl)phenylamino)-7,8-dihydro-5H-pyrano[4,3-d]pyrimidin-4-yl)ethyl)pyrrolidin-2-one]: the IC50 is 2510 nM.

As for `COc1cc(Nc2nc(CCC3CCCO3)c3c(n2)CCN(C(C)=O)C3)ccc1-n1cnc(C)c1` (stereo not drawn) [Example 111, 1-(2-(3-Methoxy-4-(4-methyl-1H-imidazol-1-yl)phenylamino)-4-(2-(tetrahydrofuran-2-yl)ethyl)-7,8-dihydropyrido[4,3-d]pyrimidin-6(5H)-yl)ethanone], the IC50 is 251 nM.
